Assay results as given in patent US20250346931A1, “METHODS FOR PRODUCING HALOGENATED COMPOUNDS” (BIGELOW LABORATORY FOR OCEAN SCIENCES, priority 2022, published 2025).
Like-named read-outs stand apart in the source and are kept apart here.

Assays:
[1] = test system: rumen-derived microbial communities; assay: Inhibition of methane production in rumen-derived microbial culture; format: cell-based, dairy cattle; settings: for IC50: Bos taurus, read-out: concentration giving 50% suppression of methane production
Procedure: FIG. 5 illustrates the production and testing process of small organic halogenated compounds for inhibition of methanogenesis. In this example, the small organic halogenated compounds produced by VBPO are incubated in a microbial culture system derived from rumen fluid obtained from dairy cattle, to determine their relative abilities at inhibiting methane production. Briefly, 1,1-dibromoacetone, co-product bromoform and derivative dibromomethane, were separately added to the culture systems. The rate of methane production was monitored in each reaction (FIGS. 6A-6C).

[2] = ciVCPO reaction velocity with PAA or H2O2 as peroxide source, Michaelis-Menten fit; format: biochemical
Text: This Example describes a method for utilizing peracetic acid as a substrate for production of small, halogenated organic compounds in lieu of hydrogen peroxide using ciVCPO. PAAM is a readily available source of peracetic acid, consisting of 32% w/v peracetic acid and 6% w/v hydrogen peroxide. As peracetic acid is not an efficient two electron reductant, and unlike hydrogen peroxide, cannot produce oxygen in the presence of hypochlorous acid and catalytic quantities of chloride ions, hydrogen peroxide must be removed to avoid oxygen production employing the enzyme catalase, derived from bovine liver.
The reaction velocity is fitted according to Michaelis-Menten kinetics to give v=f([PAA] or [H2O2]).

[3] = rumen-derived microbial communities

## CC(=O)C(Br)Br [1,1-dibromoacetone]
[1]
  IC50: 125000 nM
[1]; compared with bromoform and dibromomethane
  relative effectiveness for inhibiting methane production among compounds screened: least effective

## BrCBr [dibromomethane, reference compound]
[1]; [3]
  IC50: 150 nM

## BrC(Br)Br [bromoform, reference compound]
[1]; [3]
  IC50: 200 nM

B1: ciVCPO: vanadium chloroperoxidase from Curvularia inaequalis produced in Pichia pastoris (protein, UniProt P49053 1-609, looked up)
Vanadium chloroperoxidase: MGSVTPIPLPKIDEPEEYNTNYILFWNHVGLELNRVTHTVGGPLTGPPLSARALGMLHLAIHDAYFSICPPTDFTTFLSPDTENAAYRLPSPNGANDARQAVAGAALKMLSSLYMKPVEQPNPNPGANISDNAYAQLGLVLDRSVLEAPGGVDRESASFMFGEDVADVFFALLNDPRGASQEGYHPTPGRYKFDDEPTHPVVLIPVDPNNPNGPKMPFRQYHAPFYGKTTKRFATQSEHFLADPPGLRSNADETAEYDDAVRVAIAMGGAQALNSTKRSPWQTAQGLYWAYDGSNLIGTPPRFYNQIVRRIAVTYKKEEDLANSEVNNADFARLFALVDVACTDAGIFSWKEKWEFEFWRPLSGVRDDGRPDHGDPFWLTLGAPATNTNDIPFKPPFPAYPSGHATFGGAVFQMVRRYYNGRVGTWKDDEPDNIAIDMMISEELNGVNRDLRQPYDPTAPIEDQPGIVRTRIVRHFDSAWELMFENAISRIFLGVHWRFDAAAARDILIPTTTKDVYAVDNNGATVFQNVEDIRYTTRGTREDPEGLFPIGGVPLGIEIADEIFNNGLKPTPPEIQPMPQETPVQKPVGQQPVKGMWEEEQAPVVKEAP
[2]; FIG. 13 legend
  Vmax, PAA relative to Vmax, H2O2: approximately twice
[2]; constant NaCl 150 mM
  vmax and Km with PAA as substrate compared with hydrogen peroxide: higher vmax and Km than hydrogen peroxide
